# According to patent US20170204426A1, “MODIFIED BRASSICA PLANTS WITH INCREASED SEED OIL CONTENT” (BROOKHAVEN SCIENCE ASSOCIATES, LLC, priority 2014, published 2017):
# Tests used:
# [1] = system: AGPase; assay: Allosteric effect of 3-PGA on AGPase activity in oilseed rape embryo; type: biochemical, Brassica napus
# Description: The intermediates PEP and 3-PGA are known to allosterically affect enzymatic activity of ATP-dependent PFK and AGPase, respectively.
# […] 500 μl of common extraction buffer [10% (v/v) glycerol, 0.25% (w/v) BSA, 0.1% (v/v) Triton X-100, 50 mM Hepes/KOH, pH 7.5, 10 mM MgCl2, 1 mM EDTA, 1 mM EGTA, 1 mM benzamidine, 1 mM ε-aminocapronic acid, 1 mM phenylmethylsulfonyl fluoride (PMSF), […], 1 mM dithiothreitol (DTT)] and c. 10 mg polyvinyl pyrrolidone. PMSF was added just before extraction. DTT was omitted when using peroxidase-based or MTT-based indicator reactions (MTT: methylthiazolyldiphenyl-tetrazolium bromide). A 96-head liquid handling robot (Evolution P3, Perkin Elmer, Wellesey, Mass., USA) was used to perform subsequent dilutions of these initial extracts and to load extracts on to 96-well micro plates. During this process micro plates were maintained at 4° C. using peltier cooled blocks. […] The concentration of the products of these stopped reactions (NAD+, NADH, NADPH or glycerol-3-phosphate) was then determined using cycling assays. […] Nitrate reductase and glutamine synthetase were determined using end point assays (Gibon et al, 2004, supra). […] After measuring PK activity at pH 8.0 and at pH 6.7, the plastidic and cytosolic activities were calculated accordingly.
# [2] = system: ATP-dependent PFK; assay: Allosteric effect of PEP on ATP-dependent PFK activity in oilseed rape embryo; type: biochemical, Brassica napus
# [3] = system: PPi-PFKs of Thermoproteus tenax, Naegleria fowleri, Methylococcus capsulatus or Amycolatopsis methanolica; conditions: Reshetnikov et al. 2008; Alves et al.; cited from earlier work
Structure (SMILES),effect on enzymatic activity of AGPase [1],effect on enzymatic activity of ATP-dependent PFK [2],inhibition of PPi-PFK by PEP [3]
"O=C(O)[C@H](O)COP(=O)(O)O [3-PGA, 3-phosphoglycerate]",clear activity changes,–,–
"C=C(OP(=O)(O)O)C(=O)O [PEP, phosphoenolpyruvate]",–,clear activity changes,not inhibited
